From ChEMBL document CHEMBL6103654, “Design, Biological Characterization, and Discovery of Capromorelin Derivatives as Oral Growth Hormone Secretagogue Receptor Type 1a Agonist for the Treatment of Growth Hormone Deficiency” (J Med Chem, 2025)
Calls of active or inactive are those of the source. No cut-off for these calls is given here.

Assays:
[1] = system: Rattus norvegicus; assay: Induction of growth hormone level in Juvenile Sprague-Dawley rat blood at 0.2 mg/kg, po administered as single dose measured immediately by ELISA method (reference value: 28.5+/-8.7 ng/mL); assay type: functional
[2] = system: Rattus norvegicus; assay: Induction of growth hormone level in Juvenile Sprague-Dawley rat blood at 0.2 mg/kg, po administered as single dose measured after 20 mins by ELISA method (reference value: 29.1+/-8.6 ng/mL); assay type: functional
[3] = system: CHO; assay: Agonist activity at monkey GHSR expressed in CHO cells at maximum concentration incubated for 60 min by FLIPR assay relative to control; assay type: cell-based; conditions: Macaca mulatta, filed as agonist
[4] = organism: Rattus norvegicus; assay: Induction of growth hormone level in 4 week-old Sprague-Dawley rat assessed as increase in body length measured after 10 days; assay type: functional, organism-based; conditions: time 10.0 day
[5] = Elimination half life in male Sprague-Dawley rat at 1 mg/kg, iv administered as single dose measured after 4 hrs; assay type: ADME, organism-based; conditions: in vivo, read-out: beta t1/2 (converted)
[6] = Cmax in male dog at 2 mg/kg, po administered as single dose measured after 4 hrs; assay type: ADME, organism-based, Canis lupus familiaris; conditions: in vivo
[7] = system: Rattus norvegicus; assay: Induction of growth hormone level in Juvenile Sprague-Dawley rat blood at 0.1 mg/kg, po administered as single dose measured after 10 mins by ELISA method (reference value: 23.2+/-5.6 ng/mL); assay type: functional
[8] = system: Rattus norvegicus; assay: Induction of growth hormone level in Juvenile Sprague-Dawley rat blood at 0.5 mg/kg, po administered as single dose measured after 4 hrs by ELISA method (reference value: 32.5+/-4.5 ng/mL); assay type: functional
[9] = Half life in male monkey at 2 mg/kg, po administered as single dose measured after 4 hrs; assay type: ADME, organism-based, Macaca mulatta; conditions: rhesus monkey, in vivo
[10] = Toxicity in Sprague-Dawley rat assessed as effect on red pulp with a network of sinuses filled with erythrocytes at 10 to 100 mg/kg, po administered once daily for 14 days by H&E staining based analysis; assay type: organism-based; conditions: in vivo, 336 h, dose 10-100 mg/kg, time 14 day
[11] = Cmax in male mouse at 2 mg/kg, po administered as single dose measured after 4 hrs; assay type: ADME, organism-based; conditions: in vivo
[12] = Metabolic stability in monkey liver microsome assessed as half life at 1 uM measured upto 60 mins in presence of NADPH by LC-MS/MS analysis; assay type: ADME, Macaca mulatta; conditions: rhesus monkey, liver microsomes
[13] = system: Rattus norvegicus; assay: Induction of growth hormone level in adult Sprague-Dawley rat blood at 0.5 mg/kg, po administered as single dose measured after 20 mins by ELISA method (reference value: 4.9+/-1.1 ng/mL); assay type: functional
[14] = Plasma protein binding in mouse assessed as unbound fraction measured after 6 hrs by dialysis method; assay type: ADME, cell-free
[15] = AUC in male dog at 2 mg/kg, po administered as single dose measured after 4 hrs; assay type: ADME, organism-based, Canis lupus familiaris; conditions: in vivo
[16] = AUC in male Sprague-Dawley rat at 2 mg/kg, po administered as single dose measured after 4 hrs; assay type: ADME, organism-based; conditions: in vivo
[17] = Metabolic stability in dog liver microsome assessed as intrinsic clearance at 1 uM measured upto 60 mins in presence of NADPH by LC-MS/MS analysis; assay type: ADME, Canis lupus familiaris; conditions: liver microsomes, read-out: CLH
[18] = Metabolic stability in human liver microsome assessed as hepatic clearance at 1 uM measured upto 60 mins in presence of NADPH by LC-MS/MS analysis; assay type: ADME; conditions: liver microsomes, read-out: CLH
[19] = system: Rattus norvegicus; assay: Induction of growth hormone level in adult Sprague-Dawley rat blood by measuring AUC(0 to 40 mins) at 0.1 mg/kg, po administered as single dose by ELISA method (reference value: 7.0+/-1.7 ng/mL); assay type: functional, organism-based
[20] = Genotoxicity in Salmonella typhimurium TA100 by Ames test; assay type: toxicity; conditions: salmonella enterica subsp. enterica serovar typhimurium
[21] = system: Rattus norvegicus; assay: Induction of growth hormone level in Juvenile Sprague-Dawley rat blood at 0.1 mg/kg, po administered as single dose measured after 40 mins by ELISA method (reference value: 40.1+/-11.0 ng/mL); assay type: functional
[22] = Elimination half life in male Sprague-Dawley rat at 2 mg/kg, po administered as single dose measured after 4 hrs; assay type: ADME, organism-based; conditions: in vivo, read-out: beta t1/2 (converted)
[23] = system: Rattus norvegicus; assay: Induction of growth hormone level in Juvenile Sprague-Dawley rat blood at 0.2 mg/kg, po administered as single dose measured after 40 mins by ELISA method (reference value: 40.1+/-11.0 ng/mL); assay type: functional
[24] = system: Rattus norvegicus; assay: In vivo agonist activity at GSHR in Sprague-Dawley rat assessed as increase in body weight at 10 to 100 mg/kg, po administered once daily for 14 days; assay type: functional, organism-based; conditions: dose 10-100 mg/kg, time 14.0 day
[25] = molecular target: Cytochrome P450 2D6 (Homo sapiens, UniProt P10635); assay: Inhibition of CYP2D6 in human liver microsome incubated for 5 min in presence of NADPH by UPLC-MS/MS analysis; assay type: ADME, microsomes
[26] = molecular target: Voltage-gated inwardly rectifying potassium channel KCNH2 (Homo sapiens, UniProt Q12809); assay: Inhibition of human ERG expressed in HEK293 cells by patch clamp assay; assay type: toxicity, cell-based
[27] = system: Rattus norvegicus; assay: Induction of growth hormone level in adult Sprague-Dawley rat blood by measuring AUC(0 to 40 mins) at 0.5 mg/kg, po administered as single dose by ELISA method (reference value: 7.0+/-1.7 ng/mL); assay type: functional, organism-based
[28] = Volume of distribution in male Sprague-Dawley rat at 1 mg/kg, iv administered as single dose measured after 4 hrs; assay type: ADME, organism-based; conditions: in vivo
[29] = system: Rattus norvegicus; assay: Induction of growth hormone level in Juvenile Sprague-Dawley rat blood at 0.1 mg/kg, po administered as single dose measured after 20 mins by ELISA method (reference value: 29.1+/-8.6 ng/mL); assay type: functional
[30] = AUC in male monkey at 2 mg/kg, po administered as single dose measured after 4 hrs; assay type: ADME, organism-based, Macaca mulatta; conditions: rhesus monkey, in vivo
[31] = system: Rattus norvegicus; assay: Induction of growth hormone level in 4 week-old male Sprague-Dawley rat assessed as increase in body weight at 2.5 mg/kg, po measured after 10 days; assay type: functional, organism-based; conditions: time 10.0 day
[32] = Metabolic stability in mouse liver microsome assessed as hepatic clearance at 1 uM measured upto 60 mins in presence of NADPH by LC-MS/MS analysis; assay type: ADME; conditions: liver microsomes, read-out: CLH
[33] = system: Rattus norvegicus; assay: Induction of growth hormone level in adult Sprague-Dawley rat blood at 0.1 mg/kg, po administered as single dose measured after 40 mins by ELISA method (reference value: 14.4+/-6.9 ng/mL); assay type: functional
[34] = Volume of distribution in male dog at 0.5 mg/kg, iv administered as single dose measured after 4 hrs; assay type: ADME, organism-based, Canis lupus familiaris; conditions: in vivo
[35] = Plasma protein binding in monkey assessed as unbound fraction measured after 6 hrs by dialysis method; assay type: ADME, cell-free, Macaca mulatta; conditions: rhesus monkey
[36] = system: Rattus norvegicus; assay: Induction of growth hormone level in 6 week-old female Sprague-Dawley rat assessed as increase in body length at 2.5 mg/kg, po measured after 10 days; assay type: functional, organism-based; conditions: time 10.0 day
[37] = system: Rattus norvegicus; assay: Induction of growth hormone level in 6 week-old female Sprague-Dawley rat assessed as increase in body weight at 2.5 mg/kg, po measured after 10 days; assay type: functional, organism-based; conditions: time 10.0 day
[38] = system: Rattus norvegicus; assay: Induction of growth hormone level in Juvenile Sprague-Dawley rat blood by measuring AUC(0 to 40 mins) at 0.5 mg/kg, po administered as single dose by ELISA method (reference value: 20.2+/-4.3 ng/mL); assay type: functional, organism-based

Cytochrome P450 2D6, sequence (P10635 whole entry): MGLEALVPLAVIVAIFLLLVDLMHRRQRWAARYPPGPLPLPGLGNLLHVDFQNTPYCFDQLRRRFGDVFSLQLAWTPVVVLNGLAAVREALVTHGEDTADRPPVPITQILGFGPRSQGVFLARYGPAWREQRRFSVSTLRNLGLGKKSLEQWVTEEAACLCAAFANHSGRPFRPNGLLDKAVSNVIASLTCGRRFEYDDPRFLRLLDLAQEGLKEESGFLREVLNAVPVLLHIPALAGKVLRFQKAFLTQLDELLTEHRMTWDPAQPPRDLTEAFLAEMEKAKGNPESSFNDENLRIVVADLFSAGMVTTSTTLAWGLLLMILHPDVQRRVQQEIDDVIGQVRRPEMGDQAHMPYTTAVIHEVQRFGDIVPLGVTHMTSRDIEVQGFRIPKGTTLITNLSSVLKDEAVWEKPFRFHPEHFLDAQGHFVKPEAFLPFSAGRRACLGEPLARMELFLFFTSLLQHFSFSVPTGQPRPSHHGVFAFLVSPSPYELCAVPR
Voltage-gated inwardly rectifying potassium channel KCNH2, sequence (Q12809 whole entry): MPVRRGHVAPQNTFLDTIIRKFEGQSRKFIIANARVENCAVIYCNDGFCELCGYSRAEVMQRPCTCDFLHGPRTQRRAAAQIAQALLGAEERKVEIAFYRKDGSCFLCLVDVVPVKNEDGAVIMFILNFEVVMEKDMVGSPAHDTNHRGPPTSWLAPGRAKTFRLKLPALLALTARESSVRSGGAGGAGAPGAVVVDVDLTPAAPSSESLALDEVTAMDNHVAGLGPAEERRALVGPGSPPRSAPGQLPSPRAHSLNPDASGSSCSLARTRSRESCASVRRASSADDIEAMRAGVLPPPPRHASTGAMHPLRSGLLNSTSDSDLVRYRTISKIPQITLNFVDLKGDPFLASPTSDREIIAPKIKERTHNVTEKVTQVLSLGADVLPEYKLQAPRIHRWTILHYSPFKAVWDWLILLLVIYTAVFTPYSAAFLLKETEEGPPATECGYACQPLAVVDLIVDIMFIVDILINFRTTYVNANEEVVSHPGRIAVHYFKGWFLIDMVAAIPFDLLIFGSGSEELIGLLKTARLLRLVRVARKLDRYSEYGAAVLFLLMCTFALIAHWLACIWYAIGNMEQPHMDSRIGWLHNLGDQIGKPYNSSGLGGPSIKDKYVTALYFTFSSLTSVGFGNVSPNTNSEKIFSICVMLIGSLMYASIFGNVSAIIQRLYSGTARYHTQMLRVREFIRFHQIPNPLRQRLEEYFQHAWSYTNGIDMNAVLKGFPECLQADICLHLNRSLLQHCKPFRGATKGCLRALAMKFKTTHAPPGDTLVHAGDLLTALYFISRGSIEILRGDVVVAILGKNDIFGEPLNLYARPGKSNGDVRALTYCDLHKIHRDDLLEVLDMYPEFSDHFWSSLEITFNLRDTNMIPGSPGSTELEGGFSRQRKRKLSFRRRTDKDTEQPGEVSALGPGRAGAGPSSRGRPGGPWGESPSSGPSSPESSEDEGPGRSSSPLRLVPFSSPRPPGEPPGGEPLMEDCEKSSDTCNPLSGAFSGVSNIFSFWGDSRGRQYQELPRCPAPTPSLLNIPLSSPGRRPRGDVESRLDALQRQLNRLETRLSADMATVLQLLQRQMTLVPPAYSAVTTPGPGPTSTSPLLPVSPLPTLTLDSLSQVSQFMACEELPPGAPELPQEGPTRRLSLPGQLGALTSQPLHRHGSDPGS

## CC(C)(N)C(=O)N[C@H](COCc1ccccc1)C(=O)N1CCC2=NN(C3CC3)C(=O)[C@]2(Cc2ccccc2)C1
[1]
  Activity: 33.4 ng/mL
[2]
  Activity: 217.8 ng/mL
[3]
  Activity: 106%
[4]
  Activity: Dose-dependent-effect
[5]
  half-life: 1.07 h
[6]
  Cmax: 200 ng/mL
[7]
  Activity: 168.5 ng/mL
[8]
  Activity: 56.7 ng/mL
[9]
  half-life: 1.02 h
[10]
  Activity: Non-toxic
[11]
  Cmax: 125 ng/mL
[12]
  half-life at 1 µM: 3.1 min
[13]
  Activity: 68.8 ng/mL
[14]
  fraction unbound at 6 h: 0.621
[15]
  AUC at 4 h: 406 ng·h/mL
[16]
  AUC at 4 h: 188 ng·h/mL
[17]
  microsomal CLint at 1 µM: 134 µL/min/mg
[18]
  CLint scaled at 1 µM: 127 mL/min/kg
[19]
  AUC: 61 ng·h/mL
[20]
  Activity: Non-toxic
[21]
  Activity: 74.5 ng/mL
[22]
  half-life: 2.76 h
[23]
  Activity: 66.5 ng/mL
[24]
  Activity: Active
[25]
  IC50: > 30 µM
[26]
  IC50: > 30 µM
[27]
  AUC: 62.8 ng·h/mL
[28]
  Vd: 2.65 L/kg
[29]
  Activity: 263.6 ng/mL
[30]
  AUC: 75.13 ng·h/mL
[31]
  Activity: Active
[32]
  CLint scaled at 1 µM: 1370 mL/min/kg
[33]
  Activity: 27.6 ng/mL
[34]
  Vd: 2.88 L/kg
[35]
  fraction unbound at 6 h: 0.46
[36]
  Activity: Active
[37]
  Activity: Active
[38]
  AUC: 110 ng·h/mL
